Legend:
[1] = system: recombinant human anti-SARS-CoV antibody 03-018; type: binding; set-up: Binding of antibody 03-018 to linear peptides of the N protein of SARS-CoV Urbani / Binding of antibody 03-018 to looped/cyclic peptides of the N protein of SARS-CoV Urbani: unit not given here
[2] = system: rabbit serum obtained by immunizing a rabbit with the SARS-CoV strain Frankfurt 1; type: binding; set-up: Binding of a rabbit serum to linear peptides / Binding of a rabbit serum to looped peptides / Rabbit serum linear peptides / Rabbit serum looped peptides / Binding of a rabbit serum to linear peptides of protein N of SARS-CoV Urbani (Rabbit serum linear peptides) / Binding of a rabbit serum to looped/cyclic peptides of protein N of SARS-CoV Urbani (Rabbit serum looped peptides): unit not given here
[3] = system: control sera (pooled serum of ten healthy LUMC hospital workers; commercial negative donor pooled serum from the Dutch bloodbank); type: binding, human; set-up: Binding of Control serum LUMC to linear peptides / Binding of Control serum Blood-bank to linear peptides / Binding of Control serum LUMC to looped peptides / Binding of Control Serum Blood-Bank to Looped peptides / Binding of Control serum LUMC to linear peptides of the protein M of SARS-CoV Urbani / Binding of Control serum Blood-bank to linear peptides of the protein M of SARS-CoV Urbani / Binding of Control serum LUMC to looped peptides of the protein M of SARS-CoV Urbani / Binding of Control Serum Blood-Bank to Looped peptides of the protein M of SARS-CoV Urbani: unit not given here
[4] = system: antibodies in sera from SARS patients (sera 1a, 1b, 2, 6, 37, 62, London, SARS-yellow, SARS-green); type: binding, human; set-up: Binding of serum 6 to linear peptides of protein X1 of SARS-CoV Urbani / Binding of serum 37 to linear peptides of protein X1 of SARS-CoV Urbani / Binding of serum 6 to looped/cyclic peptide (PEPSCAN-ELISA) / Binding of serum 37 to looped/cyclic peptide (PEPSCAN-ELISA) / Binding of serum 37 to looped/cyclic peptides of protein X1 of SARS-CoV Urbani / Binding of serum 6 to linear peptides of protein X2 / Binding of serum 37 to linear peptides of protein X2 / Binding of serum 37 to looped/cyclic peptides of protein X2 of SARS-CoV Urbani / Binding of serum 6 to linear peptides of protein M of SARS-CoV Urbani / Binding of serum 37 to linear peptides of protein M of SARS-CoV Urbani / Binding of serum 6 to looped/cyclic peptides of protein M of SARS-CoV Urbani / Binding of serum 37 to looped/cyclic peptides of protein M of SARS-CoV Urbani / Binding of serum 6 to linear peptides of protein X3 of SARS-CoV Urbani / Binding of serum 37 to linear peptides of protein X3 of SARS-CoV Urbani / Binding of serum 37 to looped/cyclic peptides of protein X3 of SARS-CoV Urbani / Binding of serum 6 to linear peptides of protein X4 of SARS-CoV Urbani / Binding of serum 37 to linear peptides of protein X4 of SARS-CoV Urbani / Binding of serum 37 to looped/cyclic peptides of protein X4 of SARS-CoV Urbani / Binding of serum 6 to linear peptides of protein X5 of SARS-CoV Urbani / Binding of serum 37 to linear peptides of protein X5 of SARS-CoV Urbani / Binding of serum 37 to looped/cyclic peptides of protein X5 of SARS-CoV Urbani / Binding of serum 6 to linear peptides of protein N of SARS-CoV Urbani / Binding of serum 37 to linear peptides of protein N of SARS-CoV Urbani / Binding of serum 6 to linear peptide (PEPSCAN-ELISA) / Binding of serum 1a to looped/cyclic peptides of protein N of SARS-CoV Urbani / Binding of serum 1b to looped/cyclic peptides of protein N of SARS-CoV Urbani / Binding of serum 2 to looped/cyclic peptides of protein N of SARS-CoV Urbani / Binding of serum 6 to looped/cyclic peptides of protein N of SARS-CoV Urbani / Binding of serum 37 to looped/cyclic peptides of protein N of SARS-CoV Urbani / Binding of serum 62 to looped/cyclic peptides of protein N of SARS-CoV Urbani / Binding of serum London to looped/cyclic peptides of protein N of SARS-CoV Urbani / Binding of serum SARS-green to looped/cyclic peptides of protein N of SARS-CoV Urbani: unit not given here

| Sequence | Binding of antibody 03-018 to linear peptides of the N protein of SARS-CoV Urbani [1] | Binding of antibody 03-018 to looped/cyclic peptides of the N protein of SARS-CoV Urbani [1] | Binding of a rabbit serum to linear peptides of protein N of SARS-CoV Urbani (Rabbit serum linear peptides) [2] | Binding of a rabbit serum to looped/cyclic peptides of protein N of SARS-CoV Urbani (Rabbit serum looped peptides) [2] | Binding of serum 1a to linear peptides of protein N of SARS-CoV Urbani [4] | Binding of serum 1a to looped/cyclic peptides of protein N of SARS-CoV Urbani [4] | Binding of serum 1b to linear peptides of protein N of SARS-CoV Urbani [4] | Binding of serum 1b to looped/cyclic peptides of protein N of SARS-CoV Urbani [4] | Binding of serum 2 to linear peptides of protein N of SARS-CoV Urbani [4] | Binding of serum 2 to looped/cyclic peptides of protein N of SARS-CoV Urbani [4] | Binding of serum 6 to looped/cyclic peptides of protein N of SARS-CoV Urbani [4] | Binding of serum 37 to looped/cyclic peptides of protein N of SARS-CoV Urbani [4] | Binding of serum 62 to looped/cyclic peptides of protein N of SARS-CoV Urbani [4] | Binding of serum London to looped/cyclic peptides of protein N of SARS-CoV Urbani [4] | Binding of serum SARS-green to looped/cyclic peptides of protein N of SARS-CoV Urbani [4] | Binding of serum SARS-yellow to looped/cyclic peptides of protein N of SARS-CoV Urbani [4] | Binding of Control Serum Blood-Bank to Looped peptides [3] | Binding of Control serum Blood-bank to linear peptides [3] | Binding of Control serum LUMC to linear peptides [3] | Binding of Control serum LUMC to looped peptides [3] | also measured |
| --- | --- | --- | --- | --- | --- | --- | --- | --- | --- | --- | --- | --- | --- | --- | --- | --- | --- | --- | --- | --- | --- |
| YHGAIKLDDKDPQFK | 0.1 | 0.2 | 0.2 | 0.3 | 0.3 | 0.2 | 0.2 | 0.1 | 0.3 | 0.2 | 0.1 | 0.4 | 0.3 | 0.3 | 0.1 | 0.1 |  |  |  |  | Control Serum Blood-Bank Looped peptides [3]: 0.4; Control serum Blood-bank linear peptides [3]: 0.9; Control serum LUMC linear peptides [3]: 0.9; Control serum LUMC looped peptides [3]: 0.3; Binding of serum 6 to linear peptides of protein N of SARS-CoV Urbani [4]: 0.2; Binding of serum 37 to linear peptides of protein N of SARS-CoV Urbani [4]: 0.8; Binding of serum 62 to linear peptides of protein N of SARS-CoV Urbani [4]: 1.6; Binding of serum London to linear peptides of protein N of SARS-CoV Urbani [4]: 0.7; Binding of serum SARS-green to linear peptides of protein N of SARS-CoV Urbani [4]: 0.9; Binding of serum SARS-yellow to linear peptides of protein N of SARS-CoV Urbani [4]: 0.7 |
| YNVTQAFGRRGPEQT | 0.1 | 0.2 |  |  |  | 0.3 |  | 0.2 |  | 0.3 | 0.1 | 0.5 | 0.3 | 0.3 | 0.2 | 0.3 | 0.5 | 0.7 | 0.6 | 0.5 | Recognition of the peptide by the rabbit serum [2]: recognized; Binding of serum 1a to linear peptide (PEPSCAN-ELISA) [4]: 0.3; Binding of serum 1b to linear peptide (PEPSCAN-ELISA) [4]: 0.1; Binding of serum 2 to linear peptide (PEPSCAN-ELISA) [4]: 0.2; Binding of serum 6 to linear peptide (PEPSCAN-ELISA) [4]: 0.2; Binding of serum 37 to linear peptide (PEPSCAN-ELISA) [4]: 0.7; Binding of serum 62 to linear peptide (PEPSCAN-ELISA) [4]: 0.7; Binding of serum London to linear peptide (PEPSCAN-ELISA) [4]: 0.5; Binding of serum SARS-green to linear peptide (PEPSCAN-ELISA) [4]: 0.6; Binding of serum SARS-yellow to linear peptide (PEPSCAN-ELISA) [4]: 0.6 |
| NNQNGGRNGARPKQR | 0.2 | 0.2 | 0.3 | 0.7 | 0.2 | 0.2 | 0.2 | 0.1 | 0.2 | 0.2 | 0.2 | 0.4 | 0.3 | 0.3 | 0.1 | 0.3 | 0.5 | 0.9 | 0.8 | 0.6 | Binding of serum 6 to linear peptides of protein N of SARS-CoV Urbani [4]: 0.3; Binding of serum 37 to linear peptides of protein N of SARS-CoV Urbani [4]: 0.7; Binding of serum 62 to linear peptides of protein N of SARS-CoV Urbani [4]: 0.8; Binding of serum London to linear peptides of protein N of SARS-CoV Urbani [4]: 0.5; Binding of serum SARS-green to linear peptides of protein N of SARS-CoV Urbani [4]: 0.5; Binding of serum SARS-yellow to linear peptides of protein N of SARS-CoV Urbani [4]: 0.6 |
| EGSRGGSQASSRSSS | 0.1 | 0.2 | 0.2 | 0.7 |  | 0.4 |  | 0.3 |  | 0.4 | 0.6 | 0.6 | 0.4 | 0.4 | 0.7 | 0.7 | 0.7 | 1.0 | 1.0 | 0.8 | Binding of serum 1a to linear peptide (PEPSCAN-ELISA) [4]: 0.3; Binding of serum 1b to linear peptide (PEPSCAN-ELISA) [4]: 0.2; Binding of serum 2 to linear peptide (PEPSCAN-ELISA) [4]: 0.3; Binding of serum 6 to linear peptide (PEPSCAN-ELISA) [4]: 0.4; Binding of serum 37 to linear peptide (PEPSCAN-ELISA) [4]: 0.9; Binding of serum 62 to linear peptide (PEPSCAN-ELISA) [4]: 0.8; Binding of serum London to linear peptide (PEPSCAN-ELISA) [4]: 0.5; Binding of serum SARS-green to linear peptide (PEPSCAN-ELISA) [4]: 0.6; Binding of serum SARS-yellow to linear peptide (PEPSCAN-ELISA) [4]: 0.6 |

Reference: patent publication US20070128217A1 (priority 2003, published 2007)
